Some results are limits rather than exact numbers.

One data set concerns ddy mice. Nature of the data set: Acute toxicity (intravenous), mortality 24 hours after administration. It is filed as in vivo. The following applies: for mortality: 24 hours. The method, then: 500 mg/kg and 1,000 mg/kg of each of isosorbide-5-mononitrate (5-ISMN) and isosorbide-2-mononitrate (2-ISMN) were intravenously injected to ddy mice of approximately 20 g in body weight to observe their toxicity. The mortality was determined 24 hours after the administration.

A short description of a further data set: Solubility in water. The format is physicochemical.
The subject of data set [1] is intraocular hypertension of rabbits caused by α-chymotrypsin. Description: Effect on intraocular hypertension of rabbits caused by α-chymotrypsin (intraocular tension). The format is in vivo, male white rabbits. Details: Intraocular tension: unit not given here. The conditions noted are these: for Intraocular tension: 35 μl instilled, mean of five animals ± standard error; for effects of lowering intraocular tension (conclusion): ophthalmic solution containing 5-ISMN or 2-ISMN. On the procedure: Models of intraocular hypertension were prepared by the use of male white rabbits of approximately 2.5 kg in body weight according to the method reported by Sears (cf. Sears, D. and Sears, M., Am. J. Ophthalmol., Vol. 77, No. 3, p. 378 to 383, 1974). A rabbit was anesthetized by intravenously injecting 20 mg/kg of pentobarbital sodium and 2% of lidocaine was instilled in the left eye of the animal to anesthetize locally. A volume of 0.5 ml physiological saline solution was injected into the anterior chamber of the left eye with a needle and subsequently 0.5 ml of α-chymotrypsin 300 NFU/ml was injected into the posterior chamber with another needle while holding the former needle as such. After removing the needle inserted into the posterior chamber, the needle inserted into the anterior chamber was removed. The rabbit experimentally suffering from intraocular hypertension thus prepared was allowed to stand for 25 to 30 days to thereby recover from postoperative keratitis or conjunctivitis and to hold a stable intraocular hypertension. Then it was subjected to the test.
Intraocular tension was determined with a Perkin's Hand Applanation Tonometer (a product of Clement Clark, London) under anesthesia with 2% halothane, having 2 l/min of oxygen, and local anesthesia with 0.4% of benoxil.
Intraocular tension was measured five times and the mean value was recorded.
5-ISMN and 2-ISMN were employed as the test compounds and dissolved in a physiological saline solution.
A volume of 35 μl of each solution was instilled in the left eye treated with α-chymotrypsin. Each solution was administered to five rabbits according to a crossover design.

Where [2] appears, read: 500 mg/kg intravenous, ten animals.

For `O=[N+]([O-])OC1COC2C(O)COC12` (stereo not drawn) [5-ISMN, isosorbide-5-mononitrate], the symptoms observed entry in the data set with ddy mice (500 mg/kg intravenous) was “Slight ataxia and restlessness”. Also, in the data set with ddy mice (500 mg/kg intravenous), the “time to disappearance of symptoms (ataxia and restlessness)” value was at most 30 min. Also, the mortality result with ddy mice (setting [2]) is on record as “No animal died of the ten animals”; in the data set with ddy mice (1,000 mg/kg intravenous), “no animal died”. In addition, the solubility in water entry in “Solubility in water” was “highly soluble in water”. Also, the Intraocular tension in data set [1] (0 hr, 0.3% solution) was found to be 30.5 ± 0.8; in data set [1] (0 hr, 1.0% solution), 30.2 ± 0.5; in data set [1] (0 hr, 3.0% solution), 30.8 ± 0.8; in data set [1] (1 hr, 0.3% solution), 21.5 ± 0.5; in data set [1] (1 hr, 1.0% solution) it was 22.0 ± 1.9; in data set [1] (1 hr, 3.0% solution) it was 20.3 ± 0.9. The Intraocular tension in data set [1] (3 hr, 0.3% solution) came out at 20.1 ± 0.9; in data set [1] (3 hr, 1.0% solution), 19.1 ± 0.6; in data set [1] (3 hr, 3.0% solution) it was 16.4 ± 0.5; in data set [1] (5 hr, 0.3% solution) it was 19.8 ± 1.2; in data set [1] (5 hr, 1.0% solution), 18.6 ± 0.9; in data set [1] (5 hr, 3.0% solution), 15.7 ± 0.5. The Intraocular tension in data set [1] (7 hr, 0.3% solution) worked out at 20.5 ± 0.7; in data set [1] (7 hr, 1.0% solution), 18.5 ± 1.0; in data set [1] (7 hr, 3.0% solution) it was 16.2 ± 1.8; in data set [1] (9 hr, 0.3% solution), 19.6 ± 1.8; in data set [1] (9 hr, 1.0% solution), 19.8 ± 1.3; in data set [1] (9 hr, 3.0% solution) it was 16.2 ± 2.2. Also, the “dose dependence of effect of lowering intraocular tension” value in data set [1] (dose of 0.3 to 3%) is recorded as “would depend on the dose”. In addition, in data set [1] (dose of 0.3 to 3%), the “duration of effect of lowering intraocular tension” value is given as “at least nine”. In data set [1] (dose of 0.3 to 3%), the “effect of lowering intraocular tension” value was “remarkable effect of lowering intraocular tension”. In addition, the “effects of lowering intraocular tension (conclusion)” value in data set [1] was “remarkable, continuous effects of lowering intraocular tension”.
As for `O=[N+]([O-])OC1COC2C(O)COC12` (stereo not drawn) [2-ISMN, isosorbide-2-mononitrate], the symptoms observed entry with ddy mice (500 mg/kg and 1,000 mg/kg groups, intravenous) is “Slight ataxia”. The mortality result in the data set on ddy mice (setting [2]) and with ddy mice (1,000 mg/kg intravenous) was “No animal died of the ten animals” each time. The solubility in water result in “Solubility in water” is recorded as “highly soluble in water”. Besides, the Intraocular tension is 31.2 ± 0.6 in data set [1] (0 hr, 3.0% solution); 29.0 ± 0.8 in data set [1] (1 hr, 3.0% solution); 29.1 ± 0.9 in data set [1] (3 hr, 3.0% solution); 25.1 ± 1.4 in data set [1] (5 hr, 3.0% solution); 24.6 ± 1.4 in data set [1] (7 hr, 3.0% solution); 21.8 ± 1.3 in data set [1] (9 hr, 3.0% solution). Also, in data set [1] (dose of 3%), the “effect of lowering intraocular tension” value was “exhibits an effect of lowering intraocular tension”. Moreover, the “effects of lowering intraocular tension (conclusion)” value in data set [1] was “remarkable, continuous effects of lowering intraocular tension”.

Values taken from patent US4590207A, “Therapeutic and/or preventive ophthalmic solution for intraocular hypertension and glaucoma” (Eisai Co., Ltd., priority 1984, dated 1986).
